One data set addresses T1, Carbonic anhydrase 4 (Bos taurus, UniProt Q95323).
T1 sequence (Q95323 whole entry): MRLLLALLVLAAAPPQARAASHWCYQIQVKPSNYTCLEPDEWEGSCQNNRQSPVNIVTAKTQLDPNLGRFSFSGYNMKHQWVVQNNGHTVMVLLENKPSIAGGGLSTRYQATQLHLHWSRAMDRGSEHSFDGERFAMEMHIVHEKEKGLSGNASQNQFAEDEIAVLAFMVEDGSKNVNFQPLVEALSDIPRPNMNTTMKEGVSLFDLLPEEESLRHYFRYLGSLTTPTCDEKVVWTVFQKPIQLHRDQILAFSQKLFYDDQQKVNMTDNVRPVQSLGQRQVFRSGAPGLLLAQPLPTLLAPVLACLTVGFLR

A further data set addresses Carbonic anhydrase 2 (Homo sapiens, UniProt P00918).
In another data set the target is Carbonic anhydrase 1 (Homo sapiens, UniProt P00915).
The next data set is described as follows: physchem. The following applies: buffer, pH 7.4.
The conditions of data set [1]: octanol/water.
Description: Partition coefficient (logD) (chloroform/buffer)
The species named for data set [2] is Oryctolagus cuniculus.
Description: Tested in vitro for transcorneal accession rates (corneal permeability) against cornea with no epithelium
Data set [3] is filed under the species Oryctolagus cuniculus. The source holds these as a separate data set.
Description: Tested in vitro for transcorneal accession rates (corneal permeability) against intact cornea
Data set [4] is filed under the species Oryctolagus cuniculus. This is another data set of the same source.
Description: Tested in vivo for lowering IOP (Intraocular Pressure)in Normotensive Rabbits at pH 7.0 after treatment with 50 uL, activity at 90 minutes
The species named for data set [5] is Oryctolagus cuniculus. This is another data set of the same source.
Description: Tested in vivo for lowering IOP (Intraocular Pressure)in Normotensive Rabbits at pH 7.0 after treatment with 50 uL, activity at 60 minutes
The species entered for data set [6] is Oryctolagus cuniculus. This is another data set of the same source.
Description: Tested in vivo for lowering IOP (Intraocular Pressure)in Normotensive Rabbits at pH 7.0 after treatment with 50 uL, activity at 30 minutes

SMILES strings stand for the structures. ≈ marks a conversion by molar mass, not a printed value. Residues, ends and D or L forms follow the SMILES beside them. *: point of attachment. X1 = NS(=O)(=O)c1ccc(NC(=S)*)cc1

Sequence of Carbonic anhydrase 1 (P00915 whole entry): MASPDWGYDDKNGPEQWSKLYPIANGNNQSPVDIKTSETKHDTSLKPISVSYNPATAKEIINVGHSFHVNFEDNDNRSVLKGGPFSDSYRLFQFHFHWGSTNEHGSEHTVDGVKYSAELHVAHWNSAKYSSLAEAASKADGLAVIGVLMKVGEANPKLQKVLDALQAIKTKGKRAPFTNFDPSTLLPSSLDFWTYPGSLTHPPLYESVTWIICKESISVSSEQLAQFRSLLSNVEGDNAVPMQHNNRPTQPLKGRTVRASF
Description for Carbonic anhydrase 1: Inhibitory activity against human recombinant carbonic anhydrase I
Description for Carbonic anhydrase 2: Inhibitory activity against human recombinant carbonic anhydrase II
Description for Carbonic anhydrase 4: Inhibitory activity against bovine carbonic anhydrase IV from lung microsomes
Description for physchem: Solubility (in uM) in pH 7.40 at 25 degree C

`NS(=O)(=O)c1ccc(N/C(S)=N\c2cccc(C(=O)O)c2)cc1`: the Ki on Carbonic anhydrase 4 came to 36 nM; at Carbonic anhydrase 2, 18 nM; at Carbonic anhydrase 1 it was 50 nM.
For `NS(=O)(=O)c1ccc(N/C(S)=N/C(C(=O)O)c2ccccc2)cc1` (centres undefined), the Ki worked out at 15 nM on Carbonic anhydrase 4, 6 nM on Carbonic anhydrase 2 and 40 nM at Carbonic anhydrase 1. This compound also yielded a solubility in “physchem” of 54 mM (≈ 19.7 mg/mL). For the same compound, the logD in [1] worked out at 3.652. The kin in the data set listed under Oryctolagus cuniculus [2] worked out at 14300 h⁻¹; in the data set listed under Oryctolagus cuniculus [3] it was 5900 h⁻¹.
As for `NS(=O)(=O)c1ccc(N/C(S)=N\CCC(=O)O)cc1`, the inhibition constant Ki on Carbonic anhydrase 4 worked out at 35 nM; on Carbonic anhydrase 2, 11 nM; at Carbonic anhydrase 1 it was 47 nM.
As for `NS(=O)(=O)c1ccc(N/C(S)=N\c2ccc(C(=O)O)cc2)cc1`, the inhibition constant Ki at Carbonic anhydrase 4 was determined as 40 nM; at Carbonic anhydrase 2 it was 16 nM; on Carbonic anhydrase 1 it was 59 nM.
For `CC(C)C(/N=C(\S)Nc1ccc(S(N)(=O)=O)cc1)C(=O)O` (centres undefined), the figures for the inhibitory constant (Ki) on Carbonic anhydrase 4, at Carbonic anhydrase 2 and on Carbonic anhydrase 1 were 13 nM, 5 nM and 23 nM, respectively.
`CC(O)C(NC(=S)Nc1ccc(S(N)(=O)=O)cc1)C(=O)O` (centres undefined): the Ki at Carbonic anhydrase 4 was 16 nM; on Carbonic anhydrase 2 it was 4 nM; on Carbonic anhydrase 1 it was 30 nM.
Consider `CC(C)CC(/N=C(\S)Nc1ccc(S(N)(=O)=O)cc1)C(=O)NCC(=O)O` (centres undefined), for which the Ki was 13 nM at Carbonic anhydrase 4, 5 nM at Carbonic anhydrase 2 and 20 nM at Carbonic anhydrase 1.
In the same order, the values of `NS(=O)(=O)c1ccc(NC(=S)NC(CC(=O)O)C(=O)NC(CC(=O)O)C(=O)O)cc1` (centres undefined) are 32 nM, 15 nM and 50 nM.
For `NS(=O)(=O)c1ccc(N/C(S)=N/C(Cc2ccc(O)cc2)C(=O)O)cc1` (centres undefined) the same measures were 13 nM, 5 nM and 26 nM.
For the compound `NS(=O)(=O)c1ccc(NC(=S)N2CCC[C@H]2C(=O)NCC(=O)NCC(=O)O)cc1`, the results for the Ki at Carbonic anhydrase 4, at Carbonic anhydrase 2 and at Carbonic anhydrase 1 were 11 nM, 3 nM and 20 nM, respectively.
`NS(=O)(=O)c1ccc(NC(=S)NC(Cc2cnc[nH]2)C(=O)NCC(=O)O)cc1` (centres undefined): the Ki at Carbonic anhydrase 4 stood at 6 nM; at Carbonic anhydrase 2, 1 nM; at Carbonic anhydrase 1 it was 13 nM.
On to `CSCCC(/N=C(\S)Nc1ccc(S(N)(=O)=O)cc1)C(=O)O` (centres undefined), for which the Ki came to 13 nM on Carbonic anhydrase 4, 4 nM on Carbonic anhydrase 2 and 27 nM on Carbonic anhydrase 1.
`NS(=O)(=O)c1ccc(NC(=S)NCC(=O)NCC(=O)O)cc1`: the Ki is 32 nM on Carbonic anhydrase 4, 15 nM at Carbonic anhydrase 2 and 54 nM at Carbonic anhydrase 1.
Consider `CC(/N=C(/S)Nc1ccc(S(N)(=O)=O)cc1)C(=O)O` (centres undefined), for which the “Delta IOP” value in the data set listed under Oryctolagus cuniculus [4] is recorded as 5.2 mmHg; in the data set listed under Oryctolagus cuniculus [5], 5 mmHg; in the data set filed under Oryctolagus cuniculus [6] it was 4 mmHg. Moreover, the Ki came out at 36 nM on Carbonic anhydrase 4, 12 nM at Carbonic anhydrase 2 and 54 nM on Carbonic anhydrase 1.
On to `NS(=O)(=O)c1ccc(NC(=S)N2CCCC2C(=O)O)cc1` (centres undefined), for which the “Delta IOP” value in the data set listed under Oryctolagus cuniculus [4] came out at 1 mmHg; in the data set filed under Oryctolagus cuniculus [5], 1 mmHg; in the data set filed under Oryctolagus cuniculus [6] it was 0 mmHg. Also, the figures for the Ki at Carbonic anhydrase 4, on Carbonic anhydrase 2 and at Carbonic anhydrase 1 were 68 nM, 25 nM and 110 nM, respectively.
`NS(=O)(=O)c1ccc(N/C(S)=N/C(Cc2ccccc2)C(=O)O)cc1` (centres undefined): the results for the “Delta IOP” value in the data set listed under Oryctolagus cuniculus [4], in the data set filed under Oryctolagus cuniculus [5] and in the data set listed under Oryctolagus cuniculus [6] were 3 mmHg, 4.1 mmHg and 4 mmHg, respectively. Also, the Ki on Carbonic anhydrase 4 was determined as 13 nM; on Carbonic anhydrase 2, 6 nM; at Carbonic anhydrase 1, 30 nM.
In the case of `NS(=O)(=O)c1ccc(N/C(S)=N\CC(=O)O)cc1`, the results for the “Delta IOP” value in the data set listed under Oryctolagus cuniculus [4], in the data set filed under Oryctolagus cuniculus [5] and in the data set listed under Oryctolagus cuniculus [6] were 0.5 mmHg, 5.9 mmHg and 3 mmHg, respectively. Moreover, the Ki on Carbonic anhydrase 4 stood at 39 nM; at Carbonic anhydrase 2, 20 nM; on Carbonic anhydrase 1, 62 nM.
For `NC(=O)CCC(NC(=S)Nc1ccc(S(N)(=O)=O)cc1)C(=O)O` (centres undefined), the figures for the Ki on Carbonic anhydrase 4, on Carbonic anhydrase 2 and at Carbonic anhydrase 1 were 23 nM, 9 nM and 40 nM, respectively.
As for `NS(=O)(=O)c1ccc(N/C(S)=N/C(CS)C(=O)O)cc1` (centres undefined), the “Delta IOP” value in the data set listed under Oryctolagus cuniculus [4], in the data set filed under Oryctolagus cuniculus [5] and in the data set filed under Oryctolagus cuniculus [6] was 0 mmHg throughout. For the same compound, the Ki at Carbonic anhydrase 4 came to 10 nM; at Carbonic anhydrase 2 it was 5 nM; at Carbonic anhydrase 1, 25 nM. In “physchem”, this compound gave a solubility of 65 mM (≈ 21.8 mg/mL). This compound also registered a logD in data set [1] of 0.09. Besides, the kin was found to be 700 h⁻¹ in the data set listed under Oryctolagus cuniculus [2] and 300 h⁻¹ in the data set filed under Oryctolagus cuniculus [3].
Regarding `NS(=O)(=O)c1ccc(NC(=S)NC(CCC(=O)O)C(=O)O)cc1` (centres undefined), the Ki was 19 nM at Carbonic anhydrase 4, 10 nM on Carbonic anhydrase 2 and 38 nM at Carbonic anhydrase 1.
For the compound `N=C(N)NCCCC(/N=C(\S)Nc1ccc(S(N)(=O)=O)cc1)C(=O)O` (centres undefined), the entries for the “Delta IOP” value in the data set filed under Oryctolagus cuniculus [4], in the data set listed under Oryctolagus cuniculus [5] and in the data set filed under Oryctolagus cuniculus [6] were 4 mmHg, 1.2 mmHg and 1 mmHg, respectively. For the same compound, the Ki on Carbonic anhydrase 4 is 61 nM; at Carbonic anhydrase 2 it was 15 nM; at Carbonic anhydrase 1, 115 nM.
Consider `NS(=O)(=O)c1ccc(N/C(S)=N/C(Cc2c[nH]c3ccccc23)C(=O)O)cc1` (centres undefined), for which the Ki was found to be 24 nM on Carbonic anhydrase 4, 11 nM on Carbonic anhydrase 2 and 47 nM at Carbonic anhydrase 1.
As to `CC(/N=C(/S)Nc1ccc(S(N)(=O)=O)cc1)C(=O)NC(Cc1ccccc1)C(=O)O` (centres undefined), the “Delta IOP” value is 3 mmHg in the data set listed under Oryctolagus cuniculus [4], 0.2 mmHg in the data set listed under Oryctolagus cuniculus [5] and 0.2 mmHg in the data set filed under Oryctolagus cuniculus [6]. The figures for the Ki at Carbonic anhydrase 4, at Carbonic anhydrase 2 and on Carbonic anhydrase 1 were 13 nM, 4 nM and 23 nM, respectively.
In the case of `NS(=O)(=O)c1ccc(NC(S)=NC(Cc2c[nH]cn2)C(=O)NC(Cc2ccccc2)C(=O)O)cc1` (centres undefined), the inhibition constant Ki at Carbonic anhydrase 4 came out at 9 nM; at Carbonic anhydrase 2, 3 nM; on Carbonic anhydrase 1 it was 21 nM.
Regarding `NS(=O)(=O)c1ccc(N/C(S)=N/C(Cc2ccc(O)c(O)c2)C(=O)O)cc1` (centres undefined), the Ki at Carbonic anhydrase 4 stood at 18 nM; on Carbonic anhydrase 2, 7 nM; on Carbonic anhydrase 1, 35 nM.
For `NS(=O)(=O)c1ccc(NC(=S)N[C@@H](CC(=O)O)C(=O)N[C@@H](CC(=O)O)C(=O)N[C@@H](CC(=O)O)C(=O)N[C@@H](CC(=O)O)C(=O)O)cc1` (X1-DDDD-OH) the same measures were 27 nM, 10 nM and 59 nM.
Regarding `CCC(C)C(/N=C(\S)Nc1ccc(S(N)(=O)=O)cc1)C(=O)O` (centres undefined), the “Delta IOP” value in the data set listed under Oryctolagus cuniculus [4] was determined as 0.3 mmHg; in the data set filed under Oryctolagus cuniculus [5], 4 mmHg; in the data set listed under Oryctolagus cuniculus [6], 2 mmHg. Also, the inhibition constant Ki was 10 nM at Carbonic anhydrase 4, 4 nM on Carbonic anhydrase 2 and 22 nM on Carbonic anhydrase 1.
`NS(=O)(=O)c1ccc(N/C(S)=N\CCc2ccccn2)cc1`: the Ki on Carbonic anhydrase 4 stood at 77 nM; at Carbonic anhydrase 2 it was 40 nM; on Carbonic anhydrase 1, 124 nM.
Regarding `NS(=O)(=O)c1ccc(N/C(S)=N\CCc2ccccc2)cc1`, the Ki turned out to be 75 nM on Carbonic anhydrase 4, 42 nM at Carbonic anhydrase 2 and 125 nM on Carbonic anhydrase 1.
On to `NS(=O)(=O)c1ccc(N=C=S)cc1`, for which the Ki on Carbonic anhydrase 2 was determined as 185 nM; on Carbonic anhydrase 1 it was 5000 nM.
With `CC(=O)/N=c1/sc(S(N)(=O)=O)nn1C` [METHAZOLAMIDE], the pH-dependent lipophilicity (logD) in data set [1] turned out to be 0.06. Also, the kin in the data set filed under Oryctolagus cuniculus [2] was 13000 h⁻¹; in the data set filed under Oryctolagus cuniculus [3], 1900 h⁻¹.
